From US20250186450A1, “COMBINATION THERAPY COMPRISING DGK INHIBITORS and PD-1/PD-L1 INHIBITORS” (Incyte Corporation, priority 2023, published 2025)
“Also recorded” adds a separate entry of the source.

Assays:
DGKα = DGKα (Homo sapiens (Human), UniProt P23743); experiment: In vitro DGKα inhibition assay (ADP-Glo); assay type: biochemical; conditions: 0.1 nM DGKα, 50 μM ATP, 20 μM DLG
Protocol: (§1) The DGKα and DGKζ biochemical reactions were performed using His-tagged human recombinant enzymes (Signal Chem, DGKα, #D21-10BH; DGKζ, #D30-10H)) and DLG (Dilauroyl-sn-glycerol) lipid substrate (Signal Chem, #D430-59). ADP-Glo assay was performed using ADP-Glo™ kinase Assay kit (Promega, #V9104). The reactions were carried out in assay buffer containing 40 mM Tris, pH 7.5, 0.1% CHAPS, 0.1% Prionex, 40 mM NaCl, 5 mM MgCl2, 1 mM CaCl2, and 1 mM DTT. DGKα reactions contained 0.1 nM DGKα, 50 μM ATP, and 20 μM DLG. And DGKζ reactions contained 0.4 nM DGKζ, 30 μM ATP, and 20 μM DLG.
(§2) For compound inhibition studies, 40 nL test compound in DMSO was added to wells of white polystyrene plates in 384-well (Greiner, #784075) or 1536-well format (Greiner, #782075). Compounds were added with top concentration of 2 mM with 11 point, 3-fold dilution series. Enzyme solution (contains 2×DGK enzyme concentration in 1× assay buffer) was added to the plate in 2 μL/well volume, followed by 2 μL/well of substrate solution (contains 2× concentration of ATP and DLG substrate in 1× assay buffer). Plates were then centrifuged for 1 min at 1200 RPM and sealed or lidded. For 4 μL reaction volume, test compounds were therefore diluted 100× to final top concentration of 20 μM. After 90 minute incubation, reactions were quenched by addition of 2 μL/well Promega ADP-Glo Reagent, followed by centrifugation and lidding. After 60 min incubation, 2 μL/well Promega Kinase Detection Reagent was added, plates centrifuged, and incubated for 30 min. Plates were then read using Luminescence method on BMG PHERAstar FSX plate reader. Percent inhibition was calculated and IC50s were determined using 4-parameter fit in Genedata Screener. Labcyte Echo acoustic dispenser was used for compound addition, and Formulatrix Tempest liquid handler was used for all reagent dispenses.

DGKζ = DGKζ (Homo sapiens (Human), UniProt Q13574); experiment: In vitro DGKζ inhibition assay (ADP-Glo); assay type: biochemical; conditions: 0.4 nM DGKζ, 30 μM ATP, 20 μM DLG
DGKζ, sequence (Q13574 whole entry): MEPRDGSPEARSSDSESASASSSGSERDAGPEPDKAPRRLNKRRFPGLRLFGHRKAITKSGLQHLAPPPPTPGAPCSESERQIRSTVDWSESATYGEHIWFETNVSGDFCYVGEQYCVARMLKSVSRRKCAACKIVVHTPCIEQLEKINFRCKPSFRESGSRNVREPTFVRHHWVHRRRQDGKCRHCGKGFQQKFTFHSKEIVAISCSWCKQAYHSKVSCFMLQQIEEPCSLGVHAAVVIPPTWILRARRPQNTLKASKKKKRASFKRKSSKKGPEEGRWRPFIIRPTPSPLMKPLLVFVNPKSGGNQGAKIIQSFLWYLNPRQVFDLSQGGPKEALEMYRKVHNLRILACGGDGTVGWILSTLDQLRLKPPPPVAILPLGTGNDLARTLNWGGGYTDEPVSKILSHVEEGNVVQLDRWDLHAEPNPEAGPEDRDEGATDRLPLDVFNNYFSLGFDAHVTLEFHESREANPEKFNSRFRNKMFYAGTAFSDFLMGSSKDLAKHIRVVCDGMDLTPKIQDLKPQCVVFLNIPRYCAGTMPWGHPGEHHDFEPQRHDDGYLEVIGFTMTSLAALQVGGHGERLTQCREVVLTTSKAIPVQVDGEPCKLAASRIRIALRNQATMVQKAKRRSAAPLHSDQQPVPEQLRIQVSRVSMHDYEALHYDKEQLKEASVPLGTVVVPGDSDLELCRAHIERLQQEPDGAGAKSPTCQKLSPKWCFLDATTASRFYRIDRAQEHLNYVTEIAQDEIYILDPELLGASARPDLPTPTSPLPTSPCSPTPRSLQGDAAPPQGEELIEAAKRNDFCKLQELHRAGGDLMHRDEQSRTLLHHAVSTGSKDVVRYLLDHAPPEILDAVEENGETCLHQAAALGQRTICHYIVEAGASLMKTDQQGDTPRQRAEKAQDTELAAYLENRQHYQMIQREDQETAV
Protocol: as §1, §2

[1] = system: MC38 syngeneic tumor model; experiment: MC38 syngeneic tumor model, DGK inhibitor plus anti-PD-1 (RMP1-14); assay type: in vivo, C57Bl/6 mice; conditions: FIGS. 9A-9B, listed as Compound 3
Protocol: The in vivo effect of combining Compound 1 plus anti-PD-1 (RMP1-14, Bio X Cell) was assessed in the MC38 (CRL-1642, ATCC, Manassas, VA) syngeneic tumor model (see FIG. 3) in 6 to 8 weeks old C57Bl/6 mice (Jackson laboratories). Compound 1 was suspended in 5% N,N-dimethylacetamide (DMAC)+50 mM Citrate buffer in 0.5% methyl cellulose for oral administration and RMP1-14 was suspended in saline for intraperitoneal administration. Briefly, the left flank of the mice was shaved the day prior to subcutaneous inoculation with 2×10^6 MC38 cells suspended in PBS. On day 7, tumor dimensions were measured by Vernier calipers, and volume estimated by the formula Volume=[L (long dimension)×W^2 (short dimension)]/2. Mice were randomized into 6 groups of 10 mice of approximate mean volume (˜160 mm^3). Tumors were measured 3 times per week for the duration of the study. Starting day 7, mice were dosed with (i) vehicle; (ii) 250 μg/mouse of RMP1-14; (iii) 10 mg/kg of Compound 1; (iv) 1 mg/kg of Compound 1; (v) 10 mg/kg of Compound 1 and 250 μg/mouse of RMP1-14; or (vi) 1 mg/kg of Compound 1 and 250 μg/mouse of RMP1-14. Compound 1 was administered orally once daily (QD) for 12 days, while RMP1-14 was dosed every 5 days (for a total of 3 doses).
The in vivo effect of combining Compound 2 plus anti-PD-1 (RMP1-14, Bio X Cell) was assessed in the MC38 (CRL-1642, ATCC, Manassas, VA) syngeneic tumor model in 6 to 8 weeks old C57Bl/6 mice (Jackson laboratories). Compound 2 was suspended in 5% N,N-dimethylacetamide (DMAC)+50 mM Citrate buffer in 0.5% methyl cellulose for oral administration and RMP1-14 was suspended in saline for intraperitoneal administration. Briefly, the left flank of the mice was shaved the day prior to subcutaneous inoculation with 2×10^6 MC38 cells suspended in PBS. On day 7, tumor dimensions were measured by Vernier calipers, and volume estimated by the formula Volume=[L (long dimension)×W^2 (short dimension)]/2. Mice were randomized into 6 groups of 10 mice of approximate mean volume (˜130 mm^3). Tumors were measured 3 times per week for the duration of the study. Starting day 7, mice were dosed with (i) vehicle; (ii) 250 μg/mouse of RMP1-14 (Anti-PD-1); (iii) 0.5 mg/kg of Compound 2 QD; (iv) 0.5 mg/kg of Compound 2 […] and 250 μg/mouse of RMP1-14; (v) 0.5 mg/kg of Compound 2 Q2D; (vi) 0.5 mg/kg of Compound 2 […] and 250 μg/mouse of RMP1-14; (vii) 1.5 mg/kg of Compound 2 QD; (viii) 1.5 mg/kg of Compound 2 QD and 250 μg/mouse of RMP1-14 (ix) 1.5 mg/kg of Compound 2 Q2D; (x) 1.5 mg/kg of Compound 2 Q2D and 250 μg/mouse of RMP1-14; (xi) 1.5 mg/kg of Compound 2 Q3D; or (xii) 1.5 mg/kg of Compound 2 Q3D and 250 μg/mouse of RMP1-14.
The in vivo effect of combining 2-(4-((2S,5R)-4-(bis(4-fluorophenyl)methyl)-2,5-dimethylpiperazin-1-yl)-1H-[1,2,4]triazolo[3,4-b]purin-1-yl)-N,N-dimethylethane-1-amine (i.e., Compound 3) plus anti-PD-1 (RMP1-14, Bio X Cell) was assessed in the MC38 (CRL-1642, ATCC, Manassas, VA) syngeneic tumor model in 6 to 8 weeks old C57Bl/6 mice (Jackson laboratories). Compound 3 was suspended in 5% N,N-dimethylacetamide (DMAC)+50 mM Citrate buffer in 0.5% methyl cellulose for oral administration and RMP1-14 was suspended in saline for intraperitoneal administration. Briefly, the left flank of the mice was shaved the day prior to subcutaneous inoculation with 2×10^6 MC38 cells suspended in PBS. On day 7, tumor dimensions were measured by Vernier calipers, and volume estimated by the formula Volume=[L (long dimension)×W^2 (short dimension)]/2. Mice were randomized into 6 groups of 10 mice of approximate mean volume (˜200 mm^3). Tumors were measured 3 times per week for the duration of the study. Starting day 7, mice were dosed with (i) vehicle; (ii) 250 μg/mouse of RMP1-14 (Anti-PD-1); (iii) 10 mg/kg of Compound 3 QD; (iv) 10 mg/kg of Compound 3 QD and 250 μg/mouse of RMP1-14; (v) 30 mg/kg of Compound 3 QD; or (vi) 30 mg/kg of Compound 3 QD and 250 μg/mouse of RMP1-14.

DGKα, sequence (P23743 whole entry): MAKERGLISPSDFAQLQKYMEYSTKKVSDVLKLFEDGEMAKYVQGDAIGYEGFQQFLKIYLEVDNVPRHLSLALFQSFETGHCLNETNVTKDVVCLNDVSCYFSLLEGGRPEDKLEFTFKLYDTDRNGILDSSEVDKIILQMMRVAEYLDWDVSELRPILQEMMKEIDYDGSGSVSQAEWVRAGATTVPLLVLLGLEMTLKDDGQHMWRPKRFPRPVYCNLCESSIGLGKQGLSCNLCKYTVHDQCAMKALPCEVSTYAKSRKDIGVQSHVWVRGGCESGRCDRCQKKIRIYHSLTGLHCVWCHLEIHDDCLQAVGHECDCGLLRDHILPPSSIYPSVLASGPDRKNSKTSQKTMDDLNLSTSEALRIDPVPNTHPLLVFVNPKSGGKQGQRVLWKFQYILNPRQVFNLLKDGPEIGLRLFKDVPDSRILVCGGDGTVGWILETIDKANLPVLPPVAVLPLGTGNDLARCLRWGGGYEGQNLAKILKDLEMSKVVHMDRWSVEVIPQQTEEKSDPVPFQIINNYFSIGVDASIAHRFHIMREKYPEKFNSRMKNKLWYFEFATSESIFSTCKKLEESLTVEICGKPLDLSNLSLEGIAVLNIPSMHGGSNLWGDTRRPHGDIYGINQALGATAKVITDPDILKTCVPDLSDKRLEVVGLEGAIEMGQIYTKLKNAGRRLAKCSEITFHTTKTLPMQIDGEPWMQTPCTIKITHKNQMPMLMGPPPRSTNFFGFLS

C[C@@H]1CN(c2nc3nncn3c3c2ncn3CCN(C)C)[C@@H](C)CN1C(c1ccc(F)cc1)c1ccc(F)cc1 [Example 24, 2-(4-((2S,5R)-4-(Bis(4-fluorophenyl)methyl)-2,5-dimethylpiperazin-1-yl)-1H-[1,2,4]triazolo[3,4-b]purin-1-yl)-N,N-dimethylethane-1-amine]
IC50 (DGKα): ≤ 20 nM
IC50 (DGKζ): ≤ 20 nM
TGI, combined with anti-PD-1 mAb, vs anti-PD-1 control group ([1]; 30 mg/kg Compound 3 QD and 250 μg/mouse RMP1-14): statistically significant; also recorded: significant TGI
TGI vs vehicle control group ([1]; all groups treated with Compound 3: 10 or 30 mg/kg QD, alone or with 250 μg/mouse RMP1-14): Tumor growth inhibition of Compound 3 was observed for all groups; also recorded: statistically significant TGI
